Measured values as given in patent US7118895B2, “Process for producing aglycon by using diglycosidase and flavor-improved food containing the aglycon and converting agent to be used in the process” (Amano Enzyme Inc., priority 2000, dated 2006).

System: Crude diglycosidase
Experiment: Examination of substrate concentration in the conversion into isoflavone aglycons by diglycosidase using soybean materials;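 as to Decomposition efficiency: ratio of each glycoside/aglycon within its isoflavone family: percent of the isoflavone family total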
Assay type: biochemical, Penicillium multicolor IAM7153
Protocol: Into 20 mM acetate buffer of pH 4.0 was suspended 0.1 g, 0.25 g, 0.5 g, 1.0 g, or 1.5 g of each of various soybean materials (roasted soy flour (manufactured by Fuji Shokuryo K.K.), soymilk (manufactured by Gitoh Shokuhin K.K.), defatted soybean (manufactured by Fuji Seiyu K.K.), concentrated soybean protein (manufactured by Fuji Seiyu K.K.)). The pH of the suspension was measured and the liquid volume was adjusted to 4.5 mL while the pH was adjusted to 4.0 with 1N hydrochloric acid. An enzyme solution wherein diglycosidase activity of crude diglycosidase was adjusted to 1.88 AU/mL was added thereto in an amount of 0.5 mL, whereby the final liquid volume was 5.0 mL. Namely, the ratio of the soybean material in the reaction mixture was 2%, 5%, 10%, 20%, or 30% (w/v). The whole was reacted at 55° C. under shaking. To 5 mL of the reaction mixture was added 7 mL of ethanol after 0, 1, 3, and 6 hours of the reaction. After ultrasonication, the mixture was thoroughly mixed. It was subjected to centrifugal separation at 2,000 rpm and room temperature for 5 minutes. Then, […] of the supernatant was placed in a 1.5 mL microtube and was subjected to centrifugal separation at 15,000 rpm and 4° C. for 10 minutes. The supernatant was filtered through a filter and each sample was suitably diluted by a factor of 1 to 6 depending on the substrate concentration. Fifty μL of the diluted solution was analyzed by HLPC (Tables 27 to 38).

SMILES: COc1cc2c(=O)c(-c3ccc(O)cc3)coc2cc1O[C@@H]1O[C@H](COC(C)=O)[C@@H](O)[C@H](O)[C@H]1O [acetyl-glycitin]
- Decomposition efficiency: ratio of each glycoside/aglycon within its isoflavone family (soymilk, substrate concentration 2%, heat treatment of enzyme no, reaction time 0 h): not detected
- Decomposition efficiency: ratio of each glycoside/aglycon within its isoflavone family (soymilk, substrate concentration 2%, heat treatment of enzyme no, reaction time 1 h): not detected
- Decomposition efficiency: ratio of each glycoside/aglycon within its isoflavone family (soymilk, substrate concentration 2%, heat treatment of enzyme no, reaction time 3 h): not detected
- Decomposition efficiency: ratio of each glycoside/aglycon within its isoflavone family (soymilk, substrate concentration 2%, heat treatment of enzyme no, reaction time 6 h): not detected
- Decomposition efficiency: ratio of each glycoside/aglycon within its isoflavone family (soymilk, substrate concentration 2%, heat treatment of enzyme yes, reaction time 6 h): not detected
- Decomposition efficiency: ratio of each glycoside/aglycon within its isoflavone family (soymilk, substrate concentration 5%, heat treatment of enzyme no, reaction time 0 h): not detected
- Decomposition efficiency: ratio of each glycoside/aglycon within its isoflavone family (soymilk, substrate concentration 5%, heat treatment of enzyme no, reaction time 1 h): not detected
- Decomposition efficiency: ratio of each glycoside/aglycon within its isoflavone family (soymilk, substrate concentration 5%, heat treatment of enzyme no, reaction time 3 h): not detected
- Decomposition efficiency: ratio of each glycoside/aglycon within its isoflavone family (soymilk, substrate concentration 5%, heat treatment of enzyme no, reaction time 6 h): not detected
- Decomposition efficiency: ratio of each glycoside/aglycon within its isoflavone family (soymilk, substrate concentration 5%, heat treatment of enzyme yes, reaction time 6 h): not detected
- Decomposition efficiency: ratio of each glycoside/aglycon within its isoflavone family (soymilk, substrate concentration 10%, heat treatment of enzyme no, reaction time 0 h): not detected
- Decomposition efficiency: ratio of each glycoside/aglycon within its isoflavone family (soymilk, substrate concentration 10%, heat treatment of enzyme no, reaction time 1 h): not detected
- Decomposition efficiency: ratio of each glycoside/aglycon within its isoflavone family (soymilk, substrate concentration 10%, heat treatment of enzyme no, reaction time 3 h): not detected
- Decomposition efficiency: ratio of each glycoside/aglycon within its isoflavone family (soymilk, substrate concentration 10%, heat treatment of enzyme no, reaction time 6 h): not detected
- Decomposition efficiency: ratio of each glycoside/aglycon within its isoflavone family (soymilk, substrate concentration 10%, heat treatment of enzyme yes, reaction time 6 h): not detected
- Decomposition efficiency: ratio of each glycoside/aglycon within its isoflavone family (soymilk, substrate concentration 20%, heat treatment of enzyme no, reaction time 0 h): not detected
- Decomposition efficiency: ratio of each glycoside/aglycon within its isoflavone family (soymilk, substrate concentration 20%, heat treatment of enzyme no, reaction time 1 h): not detected
- Decomposition efficiency: ratio of each glycoside/aglycon within its isoflavone family (soymilk, substrate concentration 20%, heat treatment of enzyme no, reaction time 3 h): not detected
- Decomposition efficiency: ratio of each glycoside/aglycon within its isoflavone family (soymilk, substrate concentration 20%, heat treatment of enzyme no, reaction time 6 h): not detected
- Decomposition efficiency: ratio of each glycoside/aglycon within its isoflavone family (soymilk, substrate concentration 20%, heat treatment of enzyme yes, reaction time 6 h): not detected
- Decomposition efficiency: ratio of each glycoside/aglycon within its isoflavone family (soymilk, substrate concentration 30%, heat treatment of enzyme no, reaction time 0 h): not detected
- Decomposition efficiency: ratio of each glycoside/aglycon within its isoflavone family (soymilk, substrate concentration 30%, heat treatment of enzyme no, reaction time 1 h): not detected
- Decomposition efficiency: ratio of each glycoside/aglycon within its isoflavone family (soymilk, substrate concentration 30%, heat treatment of enzyme no, reaction time 3 h): not detected
- Decomposition efficiency: ratio of each glycoside/aglycon within its isoflavone family (soymilk, substrate concentration 30%, heat treatment of enzyme no, reaction time 6 h): not detected
- Decomposition efficiency: ratio of each glycoside/aglycon within its isoflavone family (soymilk, substrate concentration 30%, heat treatment of enzyme yes, reaction time 6 h): not detected

SMILES: O=c1c(-c2ccc(O)cc2)coc2cc(O[C@@H]3O[C@H](CO)[C@@H](O)[C@H](O)[C@H]3O)ccc12 [diadzin]
- Decomposition efficiency: ratio of each glycoside/aglycon within its isoflavone family (concentrated soybean protein, substrate concentration 2%, heat treatment of enzyme no, reaction time 0 h): 52.8%
- Decomposition efficiency: ratio of each glycoside/aglycon within its isoflavone family (concentrated soybean protein, substrate concentration 2%, heat treatment of enzyme no, reaction time 1 h): not detected
- Decomposition efficiency: ratio of each glycoside/aglycon within its isoflavone family (concentrated soybean protein, substrate concentration 2%, heat treatment of enzyme no, reaction time 3 h): not detected
- Decomposition efficiency: ratio of each glycoside/aglycon within its isoflavone family (concentrated soybean protein, substrate concentration 2%, heat treatment of enzyme no, reaction time 6 h): not detected
- Decomposition efficiency: ratio of each glycoside/aglycon within its isoflavone family (concentrated soybean protein, substrate concentration 2%, heat treatment of enzyme yes, reaction time 6 h): 52.6%
- Decomposition efficiency: ratio of each glycoside/aglycon within its isoflavone family (concentrated soybean protein, substrate concentration 5%, heat treatment of enzyme no, reaction time 0 h): 53.0%
- Decomposition efficiency: ratio of each glycoside/aglycon within its isoflavone family (concentrated soybean protein, substrate concentration 5%, heat treatment of enzyme no, reaction time 1 h): not detected
- Decomposition efficiency: ratio of each glycoside/aglycon within its isoflavone family (concentrated soybean protein, substrate concentration 5%, heat treatment of enzyme no, reaction time 3 h): not detected
- Decomposition efficiency: ratio of each glycoside/aglycon within its isoflavone family (concentrated soybean protein, substrate concentration 5%, heat treatment of enzyme no, reaction time 6 h): not detected
- Decomposition efficiency: ratio of each glycoside/aglycon within its isoflavone family (concentrated soybean protein, substrate concentration 5%, heat treatment of enzyme yes, reaction time 6 h): 53.5%
- Decomposition efficiency: ratio of each glycoside/aglycon within its isoflavone family (concentrated soybean protein, substrate concentration 10%, heat treatment of enzyme no, reaction time 0 h): 52.8%
- Decomposition efficiency: ratio of each glycoside/aglycon within its isoflavone family (concentrated soybean protein, substrate concentration 10%, heat treatment of enzyme no, reaction time 1 h): 2.2%
- Decomposition efficiency: ratio of each glycoside/aglycon within its isoflavone family (concentrated soybean protein, substrate concentration 10%, heat treatment of enzyme no, reaction time 3 h): not detected
- Decomposition efficiency: ratio of each glycoside/aglycon within its isoflavone family (concentrated soybean protein, substrate concentration 10%, heat treatment of enzyme no, reaction time 6 h): not detected
- Decomposition efficiency: ratio of each glycoside/aglycon within its isoflavone family (concentrated soybean protein, substrate concentration 10%, heat treatment of enzyme yes, reaction time 6 h): 53.3%
- Decomposition efficiency: ratio of each glycoside/aglycon within its isoflavone family (concentrated soybean protein, substrate concentration 20%, heat treatment of enzyme no, reaction time 0 h): 52.9%
- Decomposition efficiency: ratio of each glycoside/aglycon within its isoflavone family (concentrated soybean protein, substrate concentration 20%, heat treatment of enzyme no, reaction time 1 h): 0.7%
- Decomposition efficiency: ratio of each glycoside/aglycon within its isoflavone family (concentrated soybean protein, substrate concentration 20%, heat treatment of enzyme no, reaction time 3 h): not detected
- Decomposition efficiency: ratio of each glycoside/aglycon within its isoflavone family (concentrated soybean protein, substrate concentration 20%, heat treatment of enzyme no, reaction time 6 h): not detected
- Decomposition efficiency: ratio of each glycoside/aglycon within its isoflavone family (concentrated soybean protein, substrate concentration 20%, heat treatment of enzyme yes, reaction time 6 h): 52.8%
- Decomposition efficiency: ratio of each glycoside/aglycon within its isoflavone family (concentrated soybean protein, substrate concentration 30%, heat treatment of enzyme no, reaction time 0 h): 49.2%
- Decomposition efficiency: ratio of each glycoside/aglycon within its isoflavone family (concentrated soybean protein, substrate concentration 30%, heat treatment of enzyme no, reaction time 1 h): 2.7%
- Decomposition efficiency: ratio of each glycoside/aglycon within its isoflavone family (concentrated soybean protein, substrate concentration 30%, heat treatment of enzyme no, reaction time 3 h): not detected
- Decomposition efficiency: ratio of each glycoside/aglycon within its isoflavone family (concentrated soybean protein, substrate concentration 30%, heat treatment of enzyme no, reaction time 6 h): not detected
- Decomposition efficiency: ratio of each glycoside/aglycon within its isoflavone family (concentrated soybean protein, substrate concentration 30%, heat treatment of enzyme yes, reaction time 6 h): 49.8%

SMILES: O=c1c(-c2ccc(O)cc2)coc2cc(O[C@@H]3O[C@H](CO)[C@@H](O)[C@H](O)[C@H]3O)cc(O)c12 [genisitin]
- Decomposition efficiency of genistin family in defatted soybean (substrate concentration 2%, heat treatment of enzyme no, reaction time 0 h): 37.7
- Decomposition efficiency of genistin family in defatted soybean (substrate concentration 2%, heat treatment of enzyme no, reaction time 1 h): not detected
- Decomposition efficiency of genistin family in defatted soybean (substrate concentration 2%, heat treatment of enzyme no, reaction time 3 h): not detected
- Decomposition efficiency of genistin family in defatted soybean (substrate concentration 2%, heat treatment of enzyme no, reaction time 6 h): not detected
- Decomposition efficiency of genistin family in defatted soybean (substrate concentration 2%, heat treatment of enzyme yes, reaction time 6 h): 38.7
- Decomposition efficiency of genistin family in defatted soybean (substrate concentration 5%, heat treatment of enzyme no, reaction time 0 h): 40.0
- Decomposition efficiency of genistin family in defatted soybean (substrate concentration 5%, heat treatment of enzyme no, reaction time 1 h): not detected
- Decomposition efficiency of genistin family in defatted soybean (substrate concentration 5%, heat treatment of enzyme no, reaction time 3 h): not detected
- Decomposition efficiency of genistin family in defatted soybean (substrate concentration 5%, heat treatment of enzyme no, reaction time 6 h): not detected
- Decomposition efficiency of genistin family in defatted soybean (substrate concentration 5%, heat treatment of enzyme yes, reaction time 6 h): 41.8
- Decomposition efficiency of genistin family in defatted soybean (substrate concentration 10%, heat treatment of enzyme no, reaction time 0 h): 42.4
- Decomposition efficiency of genistin family in defatted soybean (substrate concentration 10%, heat treatment of enzyme no, reaction time 1 h): not detected
- Decomposition efficiency of genistin family in defatted soybean (substrate concentration 10%, heat treatment of enzyme no, reaction time 3 h): not detected
- Decomposition efficiency of genistin family in defatted soybean (substrate concentration 10%, heat treatment of enzyme no, reaction time 6 h): not detected
- Decomposition efficiency of genistin family in defatted soybean (substrate concentration 10%, heat treatment of enzyme yes, reaction time 6 h): 44.3
